# Measurements reported in publication PMC10298051, “Hyperoside as a UV Photoprotective or Photostimulating Compound—Evaluation of the Effect of UV Radiation with Selected UV-Absorbing Organic Compounds on Skin Cells” (International Journal of Molecular Sciences, 2023).
# Tests used:
# [1] = Cytotoxicity (MTT) of UV-absorbing compounds in HaCaT culture without irradiation; type: cell-based, human; conditions: human, HaCaT keratinocytes, MTT, no irradiation, mean of 3 measurements
# Experimental: (§1) The immortalized human keratinocytes HaCaT and reconstituted three-dimensional human epidermis model (EpiDerm, MatTek Europe, SVK) were grown in high-glucose DMEM (Sigma-Aldrich, Burlington, MA, USA) supplemented with sodium bicarbonate (3.7 g/L, Sigma-Aldrich, Burlington, MA, USA), fetal bovine serum (10% v/v, Biowest, France), and penicillin and streptomycin (100 U/mL and 100 μg/mL, respectively, Sigma-Aldrich, Burlington, MA, USA) in darkness under a humidified atmosphere with 5% CO2 at 37 °C. For all experiments, HaCaT was dissociated using TrypLE Express (Gibco by Thermo Fisher Scientific, Waltham, MA, USA) and transferred into 12-well plates at a total number of 1 × 10^5 cells and cultivated for 24 h. The UV sources with relatively homogeneous irradiance were made from commercially available phototherapeutic UV tubes [13]. […] The irradiance values were 6.8 ± 0.4 mW/cm^2 for the UVA source and 3.5 ± 0.4 mW/cm^2 for the UVB source.
# (§2) HaCaT cells and Epiderm were incubated for 18 h in DMEM supplemented with UV-absorbing compounds. Irradiation of the culture cells was performed in 0.6 mL/well phosphate-buffered saline (PBS) supplemented with 5 mM glucose (PBS-G) in 12-well plates. In the case of the 3D epidermal models, for irradiation, 3 inserts were always placed in one well of a 6-well plate filled with 0.9 mL of PBS-G; otherwise, they were kept separately in a 24-well plate with 0.3 mL of DMEM per well. After irradiation, PBS was replaced with fresh DMEM and the plates with cells were placed in a CO2 incubator for 18 h. The MTT assay was initiated by adding 5 mg/mL of methylthiazol tetrazolium bromide (MTT, Sigma-Aldrich) to DMEM, resulting in a 10-fold lower concentration of MTT in each well. After 3 h, the medium was completely removed and the formazan crystals produced by the cells were dissolved in 0.6 mL of DMSO for cell cultures or in 2 mL of isopropanol for epidermal models. The absorbance of these solutions was spectroscopically measured at 570 nm.
# [2] = system: HaCaT cells; test: Mitochondrial membrane potential (JC-1) in pre-treated HaCaT cells after UVA or UVB; type: cell-based, human; conditions: JC-1, concentration-dependent, UVA 24 J/cm^2 or UVB 1.2 J/cm^2
# Experimental: The mitochondrial membrane potential in HaCaT cells was estimated using the fluorescent probe 5,5′,6,6′-tetrachloro-1,1′,3,3′ tetraethylbenzimidazolylcarbocyanine chloride (JC-1, Biotium, Fremont, CA, USA). After UV irradiation in PBS-G, JC-1 was added to the cells at the final assay concentration of 2 μg/mL and the cells were allowed to incubate for 20 min. Then, the fluorescence emission intensity was measured using a Tecan Infinite 200pro fluorescence reader at excitation and emission wavelengths of 490 nm and 590 nm, respectively.
# [3] = system: HaCaT cells; test: Comet assay of DNA fragmentation in pre-treated HaCaT cells after UVA or UVB; type: cell-based, human; conditions: UVA 90 min 36 J/cm^2, HMBP 30 μM, 4-MBC 10 μM, t-UCA 300 μM, Ast 100 μM, Hyp 300 μM
# Experimental: DNA damage caused by UVA or UVB radiation to the HaCaT cells pre-treated with UV-absorbing compounds was investigated by a comet assay. The growth medium was replaced by PBS-G and the cells were irradiated by means of the UVA or UVB sources for 90 or 8 min, respectively. After irradiation, PBS-G medium was replaced with DMEM and the cells were allowed to culture for 24 h. The Comet assay was performed as previously described by Manisova and her co-workers. The samples were finally stained by SYBR Green (Invitrogen, Thermo Fisher Scientific, Waltham, MA, USA) and manually scored using an Olympus IX 70 inverted fluorescence microscope with a CCD camera (Olympus, JPN) and CometScore 2.0 software (TriTek, Wilmington, DE, USA). Approximately 100 cells were randomly selected from each sample to assess DNA damage. The amount of DNA in the head (corresponding to low fragmentation) was evaluated.
# [4] = system: HaCaT cells; test: Intracellular ROS production (CM-H2DCFDA) in pre-treated HaCaT cells after UVA or UVB; type: cell-based, human; conditions: for ROS production during UVA exposure: UVA 60 min 24 J/cm^2
# Experimental: The production of the intracellular ROS induced by UVA or UVB after 18 h of incubation with UV-absorbing compounds was analyzed using the fluorescence probe 5-(and-6)-chloromethyl-2′,7′-dichlorodihydrofluorescein diacetate (CM-H2DCFDA, Invitrogen by Thermo Fisher Scientific, Waltham, MA, USA). The HaCaT cells were incubated in PBS-G buffer supplemented with 10 μM CM-H2DCFDA for 20 min and then, after washing twice in PBS-G, exposed to UVA or UVB radiation for 60 or 3 min. After irradiation, the fluorescence of CM-DCF was recorded using a Tecan Infinite 200 pro fluorescence reader (Tecan, Männedorf, Switzerland) at excitation and emission wavelengths 490 nm and 525 nm, respectively.
# [5] = system: HaCaT cells; test: Cytotoxicity (MTT) of UV-absorbing compounds in HaCaT culture without irradiation; type: cell-based, human; conditions: for cell viability (not reduced below): at 300 μM
# Experimental: as §1, §2
# [6] = system: HaCaT cells; test: Phototoxicity test: MTT viability of pre-treated HaCaT cells after UVA or UVB exposure; type: cell-based, human; conditions: 18 h pre-incubation; for change in cell viability after UVA: UVA 60 min 24 J/cm^2, vs irradiated sample without compound
# Experimental: In the next study, HaCaT cells were incubated with two apparently non-toxic concentrations of these UV-absorbing compounds for 18 h and then their effect on the viability of HaCaT cells exposed to UVA (for 60 min at a dose of 24 J/cm^2) and UVB radiation for 3 min (at a dose of 0.6 J/cm^2) was monitored.
# as §1, §2
# [7] = system: epidermis model EpiDerm; test: MTT viability of pre-treated 3D epidermis model EpiDerm after UVA or UVB exposure; type: cell-based, human; conditions: 30 μM hyperoside or 100 μM trans-urocanic acid; 18 h or 42 h pre-incubation; UVA 24 or 36 J/cm^2
# Experimental: Control samples without the presence of the compounds are marked as C. Each value represents mean ± S.E. from 3 measurements. * Significant difference compared to the sample without UV-absorbing compound (p < 0.05).
# as §1
# […] The absorbance of these solutions was spectroscopically measured at 570 nm. The relative number of viable (oxidoreductase active) cells in the treated and untreated samples (controls) was expressed as a percentage.
# [8] = system: HaCaT cells; test: Atomic force microscopy of HaCaT cell morphology after UV irradiation; type: cell-based, human; conditions: 50 µM for 4 h
# Experimental: The size of HaCaT cells acquired by an atomic force microscope was calculated from 20 cells in an average using the NanoScope Analysis software. Cell diameter was measured along the longest part of the cell. Cells were first incubated with 50 µM hyperoside for 4 h and then irradiated with UVA radiation. […] Irradiating the cells by UV led to cluster disruption and changes in shape. It caused cell swelling, resulting in a decrease in the diameter (19.16 μm for UVA; 23.13 μm for UVB), an increase in the height (4.24 μm for UVA; 3.44 μm for UVB), and an overall elliptic shape compared to control cells (Figure 9). However, the pre-treatment of the cells with hyperoside prevented cells from those UVA-induced morphological changes. After the irradiation, the cells still formed clusters and there were no significant changes in the median of the diameter (29.87 μm) and median of the height (2.24 μm).
# HaCaT cells were seeded in Petri dishes (Willco, NLD) containing 2 mL of DMEM. The following day, the cells were exposed to UVA for 90 min and UVB for 20 min. Some cells were pre-incubated with 50 μM hyperoside for 4 h. Before irradiation, the growth medium was replaced with fresh DMEM. Immediately after irradiation, AFM measurements were performed using a Bioscope Catalyst atomic force microscope (Bruker, Billerica, MA, USA). The size of the cell scan was 100 × 100 μm and the scan rate was 0.2–0.3 Hz. […]
# [9] = system: A549 (lung adenocarcinoma); design: method as in PMID 31881478; conditions: A549, 24 h; read-out: concentration that halved cell viability; cited from earlier work
# [10] = system: H1975 (non-small cell lung cancer); conditions: H1975, 24 h; read-out: concentration that halved cell viability; cited from earlier work
# [11] = system: PANC-1 (pancreatic cancer); design: method as in PMID 26676634; conditions: PANC-1, 24 h; read-out: concentration that halved cell viability; cited from earlier work
# [12] = 100 μM, UVB 3 min 0.6 J/cm^2, vs irradiated sample without compound
structure (smiles),measurement,setting,value
"O=C(c1ccccc1)c1ccc(O)cc1O [2,4-dihydroxybenzophenone]",IC50 at 18 h,[1],85 µM
same,change in mitochondrial membrane potential after UV,[2],higher values of the mitochondrial membrane potential
COc1ccc(C(=O)c2ccccc2)c(O)c1 [2-hydroxy-4-methoxybenzophenone],IC50 at 18 h,[1],56 µM
same,change in mitochondrial membrane potential after UV,[2],higher values of the mitochondrial membrane potential
same,DNA fragmentation after UVA (percentage of DNA in comet heads),[3],reduction in DNA fragmentation
Cc1ccc(C=C2C(=O)C3(C)CCC2C3(C)C)cc1 (stereo not shown) [3-(4-methylbenzylidene)camphor],IC50 at 18 h,[1],28 µM
same,ROS production during UVA exposure,[4]; 3 and 10 μM,statistically significant decrease in ROS production
same,DNA fragmentation after UVA (percentage of DNA in comet heads),[3],reduction in DNA fragmentation
O=c1c(O[C@@H]2O[C@H](CO)[C@@H](O)[C@H](O)[C@H]2O)c(-c2ccc(O)cc2)oc2cc(O)cc(O)c12 [astragalin],IC50 at 18 h,[1],78 µM
same,DNA fragmentation after UVA (percentage of DNA in comet heads),[3],reduction in DNA fragmentation
CC1=C(/C=C/C(C)=C/C=C/C(C)=C/C=C/C=C(C)/C=C/C=C(C)/C=C/C2=C(C)CCCC2(C)C)C(C)(C)CCC1 [beta-carotene],IC50 at 18 h,[1],7.3 µM
same,change in mitochondrial membrane potential after UV,[2],higher values of the mitochondrial membrane potential
O=c1c(O[C@@H]2O[C@H](CO)[C@H](O)[C@H](O)[C@H]2O)c(-c2ccc(O)c(O)c2)oc2cc(O)cc(O)c12 [hyperoside],IC50 at 18 h,[1],> 300 µM
same,cell viability (not reduced below),[5],≥ 60%
same,change in cell viability after UVA,[6]; 100 μM,"also observed for UVA radiation, although to a lesser extent"
same,change in cell viability after UVB,[6]; [12],statistically significant increase in cell viability
same,change in viability of EpiDerm after UVA irradiation,[7],significantly increased its viability
same,ROS production during UVA exposure,[4]; 100 μM,statistically significant decrease in ROS production
same,ROS induced by UVB irradiation,"[4]; 30 and 100 μM, UVB 3 min 0.6 J/cm^2",effective in reducing ROS
same,change in mitochondrial membrane potential after UV,[2],opposite effect
same,DNA fragmentation after UVA (percentage of DNA in comet heads),[3],reduction in DNA fragmentation
same,median of the cell height after UVA,"[8]; then UVA 36 J/cm^2, untreated control 2.02 μm, UVA alone 4.24 μm",2.24 μm
same,median of the cell diameter after UVA,"[8]; then UVA 36 J/cm^2, untreated control 31.21 μm, UVA alone 19.16 μm",29.87 μm
same,IC50,[9],~400 µM
same,IC50,[10],~100 µM
same,IC50,[11],~550 µM
COc1cc(O)c2c(=O)c(OC)c(-c3ccc(O)c(OC)c3)oc2c1 [pachypodol],IC50 at 18 h,[1],5.1 µM
same,reduction in cell viability,[5]; at 10 μM,> 50%
same,change in cell viability after UVB,"[6]; apparently non-toxic concentrations, UVB 0.6 J/cm^2",cell viability decreased significantly
O=C(O)/C=C/c1c[nH]cn1 [trans-urocanic acid],IC50 at 18 h,[1],1100 µM
same,cell viability (not reduced below),[5],≥ 60%
same,change in cell viability after UVA,[6]; 100 μM,only linked with UVB radiation
same,change in cell viability after UVB,[6]; [12],statistically significant increase in cell viability
same,change in viability of EpiDerm after UVA irradiation,[7],no similar effect was observed
